Experimental data published in PMC7395068, “The evolution of strategies to minimise the risk of human drug-induced liver injury (DILI) in drug discovery and development” (Archives of Toxicology, 2020).
Like-named read-outs stand apart in the source and are kept apart here. Values belong to the compound of their own block, whether it stands above or below them.

Tests used:
[1] = Plasma free fraction (fu) and unbound Cmax (Cmax,u); assay type: in vitro ADME, human; conditions: unbound plasma Cmax
[2] = tested on: PHH 3D spheroids; design: method as in Bell et al. 2018; conditions: 14-day exposure, three donors, ref Bell et al. 2018; cited from earlier work
[3] = tested on: HepG2; design: method as in Albrecht 2019; conditions: In vitro Assay; ref Albrecht 2019; cited from earlier work
[4] = cited from earlier work
[5] = tested on: primary human hepatocytes, NIH3T3 fibroblasts, BSEP, CYP3A4; conditions: cited from earlier work; for DILI in vitro assay prediction, Schadt (2015): BSEP & Metabolism based, ref Schadt et al. 2015
[6] = tested on: HepG2 cells; conditions: cited from earlier work
[7] = tested on: HepG2 cells; conditions: cited from earlier work; remark: listed apart in the source
[8] = tested on: HepG2 cells; conditions: cited from earlier work; remark: listed apart in the source
[9] = tested on: human hepatocytes; conditions: cited from earlier work
[10] = tested on: THLE or HepG2 cells, isolated mitochondria, BSEP; conditions: cited from earlier work
[11] = tested on: PHH; conditions: cited from earlier work
[12] = tested on: hLiMTs; conditions: cited from earlier work
[13] = tested on: PHH spheroids; conditions: cited from earlier work
[14] = read-out: Human plasma Cmax; total plasma Cmax.tot, median of 9 literature references; cited from earlier work
[15] = plasma free fraction; cited from earlier work
[16] = cited from earlier work; remark: listed apart in the source
[17] = tested on: PHH; conditions: In vitro Assay; ref Albrecht 2019; cited from earlier work
[18] = tested on: hu-MPCC; conditions: In vitro Assay; ref Khetani 2012; cited from earlier work
[19] = tested on: THLE-Null and THLE-3A4 cells; conditions: In vitro Assay; ref Gustafsson 2014; cited from earlier work
[20] = tested on: isolated mouse liver mitochondria; conditions: In vitro Assay; ref Porceddu 2012; cited from earlier work
[21] = in vivo; cited from earlier work
[22] = tested on: RMPCC's; conditions: In vitro Assay; ref Khetani 2012; cited from earlier work
[23] = tested on: hLiMTs; experiment: Combined HCI (HCS) and cellular ATP 3D assay in hLiMTs; conditions: for AC50 / minimal effective concentration: Homo sapiens; for DILI prediction hLiMTs (HCS-MEC): Microtissue model structural based (HCI), combined HCS and ATP, MEC < 25 × Cmax.tot cut-off; for hLiMTs <25x Avg Cmax ATP / hLiMTs <100x Avg Cmaxu ATP: ATP endpoint; for hLiMTs <25x Avg Cmax ATP / hLiMTs <25x Avg Cmax HCS / hLiMTs <25x Avg Cmax All: cut-off <25x Avg Cmax; for hLiMTs <100x Avg Cmaxu ATP / hLiMTs <100x Avg Cmaxu HCS / hLiMTs <100x Avg Cmaxu All: cut-off <100x Avg Cmaxu; for hLiMTs <25x Avg Cmax HCS / hLiMTs <100x Avg Cmaxu HCS: HCS endpoints; for hLiMTs <25x Avg Cmax All: all endpoints (ATP and HCS); for hLiMTs Cmax max All / hLiMTs Cmax min All / hLiMTs <10 uM All / hLiMTs <100x Avg Cmaxu All: all endpoints; for hLiMTs Cmax max All: Cmax max used; for hLiMTs Cmax min All: Cmax min used; for hLiMTs <10 uM All: cut-off <10 uM
[24] = tested on: HepaRG spheroids; experiment: Combined HCI (HCS) and cellular ATP 3D assay in HepaRG spheroids; conditions: for HepaRG <25x Avg Cmax ATP / HepaRG <100x Avg Cmaxu ATP: ATP endpoint; for HepaRG <25x Avg Cmax ATP / HepaRG <25x Avg Cmax HCS / HepaRG <25x Avg Cmax All: cut-off <25x Avg Cmax; for HepaRG <100x Avg Cmaxu ATP / HepaRG <100x Avg Cmaxu HCS / HepaRG <100x Avg Cmaxu All: cut-off <100x Avg Cmaxu; for HepaRG <25x Avg Cmax HCS / HepaRG <100x Avg Cmaxu HCS: HCS endpoints; for HepaRG <25x Avg Cmax All: all endpoints (ATP and HCS); for HepaRG Cmax max All / HepaRG Cmax min All / HepaRG <10 uM All / HepaRG <100x Avg Cmaxu All: all endpoints; for HepaRG Cmax max All: Cmax max used; for HepaRG Cmax min All: Cmax min used; for HepaRG <10 uM All: cut-off <10 uM; for AC50 / minimal effective concentration: Homo sapiens; for HepaRG <25x Avg Cmax ATP / HepaRG <100x Avg Cmaxu ATP / HepaRG <25x Avg Cmax HCS / HepaRG <100x Avg Cmaxu HCS / HepaRG <25x Avg Cmax All / HepaRG Cmax max All / HepaRG Cmax min All / HepaRG <10 uM All / HepaRG <100x Avg Cmaxu All / AC50 / minimal effective concentration: HepaRG; for DILI prediction HepaRG spheroids (HCS-MEC): Microtissue model structural based (HCI), combined HCS and ATP, MEC < 25 × Cmax.tot cut-off
[25] = tested on: OATP1B1; conditions: known substrates; cited from earlier work
[26] = tested on: HepG2 C3A spheroid, BSEP, Glu/Gal in HepG2 cells, bioactivation; conditions: Bayesian modeling; ref Williams et al. 2019; cited from earlier work
[27] = In vitro Assay, ref Schadt 2015
[28] = In vitro Assay, ref Proctor 2017
[29] = Modeled in vitro assays (cytotoxicity, mitochondrial dysfunction, BSEP), ref Aleo et al. 2019
[30] = HCS endpoints only, 25 × Cmax.tot cut-off

- Human plasma Cmax,u [1]: 0.101 µM
- hLiMTs <25x Avg Cmax ATP [23]: +ve
- hLiMTs <100x Avg Cmaxu ATP [23]: -ve
- hLiMTs <25x Avg Cmax HCS [23]: +ve
- hLiMTs <100x Avg Cmaxu HCS [23]: -ve
- hLiMTs <25x Avg Cmax All [23]: +ve
- hLiMTs Cmax max All [23]: +ve
- hLiMTs Cmax min All [23]: +ve
- hLiMTs <10 uM All [23]: -ve
- hLiMTs <100x Avg Cmaxu All [23]: -ve
- HepaRG <25x Avg Cmax ATP [24]: +ve
- HepaRG <100x Avg Cmaxu ATP [24]: -ve
- HepaRG <25x Avg Cmax HCS [24]: +ve
- HepaRG <100x Avg Cmaxu HCS [24]: -ve
- HepaRG <25x Avg Cmax All [24]: +ve
- HepaRG Cmax max All [24]: +ve
- HepaRG Cmax min All [24]: +ve
- HepaRG <10 uM All [24]: -ve
- HepaRG <100x Avg Cmaxu All [24]: -ve
Compound: O=C(O)Cc1ccccc1Nc1c(Cl)cccc1Cl [diclofenac]
- detection at 10 × Cmax.tot cut-off [2]: only detected by one of three donors
- Cytotoxicity HepG2 48 hrs [3]: +VE
- DILI +VE (5-8), DILI -VE (-4) ([4]; in vivo): +VE
- DILI severity category (Chen et al. [2016]) ([4]; in vivo): Most
- DILI in vitro assay prediction, Schadt (2015) [5]: +VE
- Cellular toxicity (3T3 cells) [5, 27]: -VE
- Combined Assay [5, 27]: +VE
- GSH adduct HML [5, 27]: +VE
- Hepatocyte cellular toxicity [5, 27]: -VE
- MitoTox 3T3 [5, 27]: -VE
- TDI CYP3A4 [5, 27]: -VE
- hBSEP inhibition [5, 27]: -VE
- Structural based (HCI) ([6]; In vitro Assay, ref O'Brien 2006): +VE
- DILI in vitro assay prediction, O'Brien (2006) [6]: +VE (key: +VE: lowest HCI endpoint IC50 (or in the absence of dose–response < 100 µM) < 30 × total human plasma exposure levels (Cmax.tot))
- Structural based (HCI) ([7]; In vitro Assay, ref Persson 2013): -VE
- Cluser analysis [7]: -VE
- DILI in vitro assay prediction, Persson (2013) [7]: -VE
- Structural based (HCI) ([8]; In vitro Assay, ref Tolosa 2012): +VE
- DILI in vitro assay prediction, Tolosa (2012) [8]: +VE
- DILI in vitro assay prediction, Xu (2008) [9]: +VE
- Ro2 Hybrid HRM Score [10]: +VE
- PHH/100uM, Proctor (2017) ([11]; 2D PHH, ATP, IC50 threshold 100 µM, ref Proctor et al. 2017): -VE
- PHH ATP <100uM [11, 28]: -VE
- hLiMTs ATP <100uM [12, 28]: +VE (IC50 threshold of 100 µM)
- hLiMTs/100uM, Proctor (2017) ([12]; hLiMTs, ATP, IC50 threshold 100 µM, ref Proctor et al. 2017): +VE (IC50 threshold of 100 µM)
- hLiMTs ATP <20 x Cmax ([13]; In vitro Assay, ref Vorrink 2018): +VE (IC20 < 20 × Cmax.tot cut-off)
- DILI in vitro assay prediction, Vorrink (2018) [13]: +VE (key: +VE: IC20 < 20 × Cmax.tot cut-off)
- Cmax [14]: 10.1 µM
- fu [15]: 0.010
- Assigned DILI category ([16]; in vivo): 3
- In vivo DILI ([16]; in vivo): +VE
- Cytotoxicity PHH 48 hrs [17]: +VE
- HMPCC's [18]: +VE
- THLE-Null [19]: +VE
- in vitro data EC2<=1x Cmax [20]: +VE
- DILI Score (FDA) (1-8) [21]: 7
- RMPCC's [22]: +VE
- AC50 ([23]; read-out: ATP endpoint AC50): 62.1 µM
- minimal effective concentration ([23]; read-out: ATP endpoint MEC): 17.2 µM
- AC50 ([23]; read-out: HCS endpoint AC50): 293 µM
- minimal effective concentration ([23]; read-out: HCS endpoint MEC): 45 µM
- DILI prediction hLiMTs (HCS-MEC) [23]: +VE (MEC < 25 × Cmax.tot cut-off)
- AC50 ([24]; read-out: ATP endpoint AC50): 78 µM
- minimal effective concentration ([24]; read-out: ATP endpoint MEC): 38.2 µM
- AC50 ([24]; read-out: HCS endpoint AC50): 98.6 µM
- minimal effective concentration ([24]; read-out: HCS endpoint MEC): 42.9 µM
- DILI prediction HepaRG spheroids (HCS-MEC) [24]: +VE (MEC < 25 × Cmax.tot cut-off)

- Human plasma Cmax,u [1]: 0.126 µM
- hLiMTs <25x Avg Cmax ATP [23]: -ve
- hLiMTs <100x Avg Cmaxu ATP [23]: -ve
- hLiMTs <25x Avg Cmax HCS [23]: +ve
- hLiMTs <100x Avg Cmaxu HCS [23]: -ve
- hLiMTs <25x Avg Cmax All [23]: +ve
- hLiMTs Cmax max All [23]: +ve
- hLiMTs Cmax min All [23]: +ve
- hLiMTs <10 uM All [23]: -ve
- hLiMTs <100x Avg Cmaxu All [23]: -ve
- HepaRG <25x Avg Cmax ATP [24]: -ve
- HepaRG <100x Avg Cmaxu ATP [24]: -ve
- HepaRG <25x Avg Cmax HCS [24]: +ve
- HepaRG <100x Avg Cmaxu HCS [24]: +ve (<100x Avg Cmaxu)
- HepaRG <25x Avg Cmax All [24]: +ve
- HepaRG Cmax max All [24]: +ve
- HepaRG Cmax min All [24]: +ve
- HepaRG <10 uM All [24]: +ve (<10 uM)
- HepaRG <100x Avg Cmaxu All [24]: +ve (<100x Avg Cmaxu)
Compound: Cc1cc2c(cc1CC(=O)c1sccc1S(=O)(=O)Nc1onc(C)c1Cl)OCO2 [sitaxsentan]
- substrate for hepatic uptake transporter OATP1B1 [25]: known substrates
- DILI severity category (Chen et al. [2016]) ([4]; LTKB DILIrank category, ref Chen et al. 2016): Most
- DILI severity category (Chen 2016) ([4]; human DILI classification, LTKB DILIrank, ref Chen et al. 2016): Most
- DILI severity category ([4]; human DILI severity, ref Chen et al.): Most
- DILI in vitro assay prediction, Schadt (2015) [5]: +VE
- Partition Hybrid HRM Score ≥4, Aleo (2019) [10, 29]: +VE (Partition Hybrid HRM Score ≥4)
- Partition Hybrid HRM Score ≥8, Aleo (2019) [10, 29]: +VE (Partition Hybrid HRM Score ≥8)
- Rule of Two hybrid HRM Score ≥3, Aleo (2019) [10, 29]: +VE (Rule of Two hybrid HRM Score ≥3)
- Rule of Two hybrid HRM Score ≥8, Aleo (2019) [10, 29]: +VE (Rule of Two hybrid HRM Score ≥8)
- hLiMTs/100xCmax, Proctor (2017) ([12]; hLiMTs, ATP, IC50 < 100 × Cmax.tot, ref Proctor et al. 2017): +VE (IC50 < 100 × Cmax.tot)
- Bayesian Machine Learning DILI prediction, Williams (2019) [26]: +VE
- Cmax [14]: 25.3 µM
- fu [15]: 0.005
- Assigned DILI category ([16]; Chen et al. 2016 or literature alignment, ref Chen et al. 2016): 3
- DILI prediction hLiMTs, HCI alone [23, 30]: detection
- minimal effective concentration ([23]; read-out: HCS endpoint MEC): 130 µM
- DILI prediction hLiMTs (HCS-MEC) [23]: +VE (MEC < 25 × Cmax.tot cut-off)
- DILI prediction hLiMTs, ATP alone ([23]; cellular ATP only, 25 × Cmax.tot cut-off): unpredicted
- DILI prediction HepaRG spheroids, HCI alone [24, 30]: positive
- AC50 ([24]; read-out: HCS endpoint AC50): 9.74 µM
- minimal effective concentration ([24]; read-out: HCS endpoint MEC): 8.53 µM
- DILI prediction HepaRG spheroids (HCS-MEC) [24]: +VE (MEC < 25 × Cmax.tot cut-off)
